Test results as given in the kinase profiling compilation of Christmann-Franck et al. (2016).

Legend:
Test in all cases: radiometric filter-binding kinase assay, Kinase HotSpot
Conditions in all cases: compound 0.5 µM; ATP 10 µM
PRKACG (human) = PRKACG (human) (UniProt P22612)
CAMK2A (human) = CAMK2A (human) (UniProt Q9UQM7)
AXL (human) = AXL (human) (UniProt P30530)
AKT3 (human) = AKT3 (human) (UniProt Q9Y243)
SLK (human) = SLK (human) (UniProt Q9H2G2)
RPS6KA3 KD1 KD2 (human) = RPS6KA3 KD1 KD2 (human) (UniProt P51812)
MAP3K8 (human) = MAP3K8 (human) (UniProt P41279)
STK38 (human) = STK38 (human) (UniProt Q15208)
PTK2B (human) = PTK2B (human) (UniProt Q14289)
PDGFRB (human) = PDGFRB (human) (UniProt P09619)
AURKC (human) = AURKC (human) (UniProt Q9UQB9)
EPHA4 (human) = EPHA4 (human) (UniProt P54764)
PRKD3 (human) = PRKD3 (human) (UniProt O94806)
CSK (human) = CSK (human) (UniProt P41240)
MAP3K3 (human) = MAP3K3 (human) (UniProt Q99759)
MAP3K5 (human) = MAP3K5 (human) (UniProt Q99683)
MAP3K14 (human) = MAP3K14 (human) (UniProt Q99558)
Chain of MAP3K14 (human) (Q99558 whole entry, looked up): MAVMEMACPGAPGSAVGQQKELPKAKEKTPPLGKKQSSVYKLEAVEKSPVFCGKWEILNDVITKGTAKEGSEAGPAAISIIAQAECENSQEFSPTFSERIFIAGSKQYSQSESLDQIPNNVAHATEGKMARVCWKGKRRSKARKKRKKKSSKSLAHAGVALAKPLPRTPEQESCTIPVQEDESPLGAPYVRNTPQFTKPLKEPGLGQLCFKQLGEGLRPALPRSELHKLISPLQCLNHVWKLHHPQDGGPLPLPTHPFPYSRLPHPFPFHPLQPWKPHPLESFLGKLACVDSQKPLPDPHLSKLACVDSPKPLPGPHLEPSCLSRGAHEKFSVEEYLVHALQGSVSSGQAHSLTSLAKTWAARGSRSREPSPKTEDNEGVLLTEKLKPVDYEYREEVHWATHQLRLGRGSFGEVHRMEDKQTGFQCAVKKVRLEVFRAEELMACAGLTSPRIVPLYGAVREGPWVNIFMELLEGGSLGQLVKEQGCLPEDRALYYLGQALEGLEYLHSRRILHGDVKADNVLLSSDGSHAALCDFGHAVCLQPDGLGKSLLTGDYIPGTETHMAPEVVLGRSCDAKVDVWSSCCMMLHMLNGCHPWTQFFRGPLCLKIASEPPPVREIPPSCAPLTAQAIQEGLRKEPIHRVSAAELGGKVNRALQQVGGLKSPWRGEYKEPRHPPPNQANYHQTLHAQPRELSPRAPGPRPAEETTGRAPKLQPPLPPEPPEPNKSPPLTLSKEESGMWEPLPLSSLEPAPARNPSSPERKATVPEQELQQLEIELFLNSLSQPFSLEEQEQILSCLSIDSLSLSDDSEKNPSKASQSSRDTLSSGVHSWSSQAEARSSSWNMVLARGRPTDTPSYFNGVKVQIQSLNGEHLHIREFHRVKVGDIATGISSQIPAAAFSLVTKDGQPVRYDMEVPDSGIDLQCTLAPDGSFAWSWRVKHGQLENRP

MAPK8 (human) = MAPK8 (human) (UniProt P45983)
Chain of MAPK8 (human) (P45983 whole entry, looked up): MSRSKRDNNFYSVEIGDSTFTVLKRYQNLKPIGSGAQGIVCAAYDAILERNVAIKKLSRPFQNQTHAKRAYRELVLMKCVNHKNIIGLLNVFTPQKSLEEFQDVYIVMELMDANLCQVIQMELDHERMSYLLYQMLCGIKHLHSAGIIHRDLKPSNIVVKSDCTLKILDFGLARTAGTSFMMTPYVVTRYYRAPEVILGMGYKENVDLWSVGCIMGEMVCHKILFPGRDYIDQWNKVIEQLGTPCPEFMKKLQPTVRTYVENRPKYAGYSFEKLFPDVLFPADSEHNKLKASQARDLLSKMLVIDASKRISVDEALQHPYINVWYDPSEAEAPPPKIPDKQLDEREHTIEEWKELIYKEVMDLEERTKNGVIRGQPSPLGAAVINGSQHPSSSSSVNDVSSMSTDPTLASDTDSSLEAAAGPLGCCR

NEK11 (human) = NEK11 (human) (UniProt Q8NG66)
PRKD1 (human) = PRKD1 (human) (UniProt Q15139)
DYRK3 (human) = DYRK3 (human) (UniProt O43781)
LCK (human) = LCK (human) (UniProt P06239)
[1] = target: TYK2 JH1 catalytic (human) (UniProt P29597)
BTK (human) = BTK (human) (UniProt Q06187)
ACVR1B (human) = ACVR1B (human) (UniProt P36896)
SRPK2 (human) = SRPK2 (human) (UniProt P78362)
CSNK2A1 (human) = CSNK2A1 (human) (UniProt P68400)
ROCK1 (human) = ROCK1 (human) (UniProt Q13464)
TAOK3 (human) = TAOK3 (human) (UniProt Q9H2K8)
Chain of TAOK3 (human) (Q9H2K8 whole entry, looked up): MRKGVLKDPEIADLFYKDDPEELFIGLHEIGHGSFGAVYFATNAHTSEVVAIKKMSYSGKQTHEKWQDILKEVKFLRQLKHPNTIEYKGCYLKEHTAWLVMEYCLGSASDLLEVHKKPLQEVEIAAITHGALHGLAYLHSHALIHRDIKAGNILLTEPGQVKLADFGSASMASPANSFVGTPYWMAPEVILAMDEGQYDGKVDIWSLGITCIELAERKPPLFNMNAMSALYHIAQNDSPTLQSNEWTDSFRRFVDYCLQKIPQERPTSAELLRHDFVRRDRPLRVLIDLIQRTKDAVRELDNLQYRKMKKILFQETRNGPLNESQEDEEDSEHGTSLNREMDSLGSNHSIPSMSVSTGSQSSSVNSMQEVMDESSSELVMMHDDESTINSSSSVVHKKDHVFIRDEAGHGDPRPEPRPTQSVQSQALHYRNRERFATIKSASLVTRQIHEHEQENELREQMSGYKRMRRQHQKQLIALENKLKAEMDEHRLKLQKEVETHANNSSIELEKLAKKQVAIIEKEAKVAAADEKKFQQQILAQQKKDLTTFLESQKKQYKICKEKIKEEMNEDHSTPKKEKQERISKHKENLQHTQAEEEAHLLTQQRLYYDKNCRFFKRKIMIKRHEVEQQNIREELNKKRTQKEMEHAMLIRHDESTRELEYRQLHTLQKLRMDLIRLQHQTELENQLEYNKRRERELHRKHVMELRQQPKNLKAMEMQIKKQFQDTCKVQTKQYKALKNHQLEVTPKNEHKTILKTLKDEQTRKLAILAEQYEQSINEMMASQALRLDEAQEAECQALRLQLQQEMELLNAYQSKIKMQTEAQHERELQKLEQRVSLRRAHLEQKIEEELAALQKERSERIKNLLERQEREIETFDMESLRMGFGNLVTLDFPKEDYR

PAK6 (human) = PAK6 (human) (UniProt Q9NQU5)
DAPK1 (human) = DAPK1 (human) (UniProt P53355)
Chain of DAPK1 (human) (P53355 whole entry, looked up): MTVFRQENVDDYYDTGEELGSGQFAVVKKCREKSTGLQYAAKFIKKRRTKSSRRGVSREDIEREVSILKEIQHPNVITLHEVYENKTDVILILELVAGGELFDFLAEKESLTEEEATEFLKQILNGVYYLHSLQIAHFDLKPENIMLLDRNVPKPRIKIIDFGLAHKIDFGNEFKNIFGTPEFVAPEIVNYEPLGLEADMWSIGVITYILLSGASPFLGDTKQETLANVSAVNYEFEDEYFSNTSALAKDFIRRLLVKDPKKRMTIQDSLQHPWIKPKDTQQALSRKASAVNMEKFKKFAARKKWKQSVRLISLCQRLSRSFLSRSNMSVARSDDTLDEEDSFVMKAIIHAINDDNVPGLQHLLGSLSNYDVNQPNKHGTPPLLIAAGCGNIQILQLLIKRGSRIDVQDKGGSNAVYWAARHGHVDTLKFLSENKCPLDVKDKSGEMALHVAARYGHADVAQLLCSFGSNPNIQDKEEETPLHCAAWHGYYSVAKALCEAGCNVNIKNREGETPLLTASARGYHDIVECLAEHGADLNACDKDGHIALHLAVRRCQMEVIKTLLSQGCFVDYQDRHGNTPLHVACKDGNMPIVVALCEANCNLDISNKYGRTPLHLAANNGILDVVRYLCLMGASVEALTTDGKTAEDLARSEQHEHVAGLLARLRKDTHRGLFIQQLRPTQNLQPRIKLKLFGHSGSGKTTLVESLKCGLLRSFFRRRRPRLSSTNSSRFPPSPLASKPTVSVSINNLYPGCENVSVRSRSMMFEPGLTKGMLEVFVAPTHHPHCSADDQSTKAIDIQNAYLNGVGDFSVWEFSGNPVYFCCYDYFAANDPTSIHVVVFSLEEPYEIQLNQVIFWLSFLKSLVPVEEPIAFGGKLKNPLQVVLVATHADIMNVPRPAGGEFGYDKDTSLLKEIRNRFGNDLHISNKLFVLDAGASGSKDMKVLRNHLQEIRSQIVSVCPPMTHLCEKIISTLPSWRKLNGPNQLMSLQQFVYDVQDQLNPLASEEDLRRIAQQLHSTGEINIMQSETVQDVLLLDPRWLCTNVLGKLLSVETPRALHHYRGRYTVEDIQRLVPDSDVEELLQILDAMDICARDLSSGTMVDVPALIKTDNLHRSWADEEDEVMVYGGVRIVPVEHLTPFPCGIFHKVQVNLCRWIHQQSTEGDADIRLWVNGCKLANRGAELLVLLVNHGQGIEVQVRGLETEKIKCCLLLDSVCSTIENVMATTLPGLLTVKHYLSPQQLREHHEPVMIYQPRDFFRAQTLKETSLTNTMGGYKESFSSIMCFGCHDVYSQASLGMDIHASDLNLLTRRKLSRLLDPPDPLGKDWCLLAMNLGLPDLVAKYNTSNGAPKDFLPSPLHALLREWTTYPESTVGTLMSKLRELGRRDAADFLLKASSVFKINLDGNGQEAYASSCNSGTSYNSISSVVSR

MAP4K2 (human) = MAP4K2 (human) (UniProt Q12851)
INSR (human) = INSR (human) (UniProt P06213)
MAPK11 (human) = MAPK11 (human) (UniProt Q15759)
CAMK1D (human) = CAMK1D (human) (UniProt Q8IU85)
Chain of CAMK1D (human) (Q8IU85 whole entry, looked up): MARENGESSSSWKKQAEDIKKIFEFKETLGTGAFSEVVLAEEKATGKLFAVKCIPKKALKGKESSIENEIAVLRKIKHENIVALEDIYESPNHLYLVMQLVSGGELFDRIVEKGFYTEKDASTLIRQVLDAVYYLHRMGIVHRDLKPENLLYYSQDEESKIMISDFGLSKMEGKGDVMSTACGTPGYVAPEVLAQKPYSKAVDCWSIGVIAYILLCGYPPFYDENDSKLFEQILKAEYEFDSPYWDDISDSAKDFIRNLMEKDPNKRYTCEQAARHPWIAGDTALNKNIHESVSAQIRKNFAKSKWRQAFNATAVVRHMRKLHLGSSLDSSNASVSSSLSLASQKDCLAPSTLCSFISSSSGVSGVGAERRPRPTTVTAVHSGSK

STK33 (human) = STK33 (human) (UniProt Q9BYT3)
CDK6 CCND1 (human) = CDK6 CCND1 (human) (UniProt Q00534+P24385)
PBK (human) = PBK (human) (UniProt Q96KB5)
CDK2 CCNA2 (human) = CDK2 CCNA2 (human) (UniProt P24941+P20248)
STK10 (human) = STK10 (human) (UniProt O94804)
CAMK2D (human) = CAMK2D (human) (UniProt Q13557)
Chain of CAMK2D (human) (Q13557 whole entry, looked up): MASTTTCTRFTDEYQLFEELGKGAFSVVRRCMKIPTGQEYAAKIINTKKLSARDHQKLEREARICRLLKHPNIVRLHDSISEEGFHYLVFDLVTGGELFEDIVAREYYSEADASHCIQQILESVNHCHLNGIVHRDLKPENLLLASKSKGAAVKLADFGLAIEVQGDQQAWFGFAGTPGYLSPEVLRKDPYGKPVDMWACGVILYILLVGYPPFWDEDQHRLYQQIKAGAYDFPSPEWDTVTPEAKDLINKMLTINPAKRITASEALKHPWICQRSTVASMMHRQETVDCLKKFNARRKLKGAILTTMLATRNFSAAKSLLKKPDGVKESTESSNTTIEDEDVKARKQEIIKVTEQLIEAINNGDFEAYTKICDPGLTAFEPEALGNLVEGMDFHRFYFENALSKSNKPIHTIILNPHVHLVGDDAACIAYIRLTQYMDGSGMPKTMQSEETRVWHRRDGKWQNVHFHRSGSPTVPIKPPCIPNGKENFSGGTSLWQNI

FER (human) = FER (human) (UniProt P16591)

Chain of CAMK2A (human) (Q9UQM7 whole entry, looked up): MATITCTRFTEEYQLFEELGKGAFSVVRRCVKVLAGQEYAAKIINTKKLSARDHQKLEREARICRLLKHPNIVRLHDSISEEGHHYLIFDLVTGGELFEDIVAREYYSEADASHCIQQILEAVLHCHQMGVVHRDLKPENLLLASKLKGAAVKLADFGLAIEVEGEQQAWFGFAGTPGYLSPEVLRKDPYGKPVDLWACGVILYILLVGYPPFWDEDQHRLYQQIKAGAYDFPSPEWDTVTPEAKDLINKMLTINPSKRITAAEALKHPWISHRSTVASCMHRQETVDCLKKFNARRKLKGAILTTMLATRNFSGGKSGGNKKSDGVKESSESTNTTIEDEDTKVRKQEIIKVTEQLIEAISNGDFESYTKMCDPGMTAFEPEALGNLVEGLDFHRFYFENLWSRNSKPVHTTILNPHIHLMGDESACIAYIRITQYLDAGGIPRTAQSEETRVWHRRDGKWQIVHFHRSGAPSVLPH

Compound: CCC(=O)Nc1ccc2ncnc(Nc3cccc(Br)c3)c2c1
- residual activity (PRKACG (human)): 95.5%
- residual activity (CAMK2A (human)): 85.7%
- residual activity (AXL (human)): 126%
- residual activity (AKT3 (human)): 94.4%
- residual activity (SLK (human)): 90%
- residual activity (RPS6KA3 KD1 KD2 (human)): 95%
- residual activity (MAP3K8 (human)): 93%
- residual activity (STK38 (human)): 100%
- residual activity (PTK2B (human)): 99%
- residual activity (PDGFRB (human)): 98%
- residual activity (AURKC (human)): 102%
- residual activity (EPHA4 (human)): 94.3%
- residual activity (PRKD3 (human)): 85.9%
- residual activity (CSK (human)): 89.5%
- residual activity (MAP3K3 (human)): 89.8%
- residual activity (MAP3K5 (human)): 102%
- residual activity (MAP3K14 (human)): 116%
- residual activity (MAPK8 (human)): 73.7%
- residual activity (NEK11 (human)): 103%
- residual activity (PRKD1 (human)): 97.9%
- residual activity (DYRK3 (human)): 92.3%
- residual activity (LCK (human)): 93.1%
- residual activity [1]: 90.2%
- residual activity (BTK (human)): 89.4%
- residual activity (ACVR1B (human)): 96.5%
- residual activity (SRPK2 (human)): 88.6%
- residual activity (CSNK2A1 (human)): 99%
- residual activity (ROCK1 (human)): 99.5%
- residual activity (TAOK3 (human)): 89.2%
- residual activity (PAK6 (human)): 101%
- residual activity (DAPK1 (human)): 99.4%
- residual activity (MAP4K2 (human)): 90.5%
- residual activity (INSR (human)): 101%
- residual activity (MAPK11 (human)): 92.9%
- residual activity (CAMK1D (human)): 104%
- residual activity (STK33 (human)): 94.1%
- residual activity (CDK6 CCND1 (human)): 92.5%
- residual activity (PBK (human)): 96.2%
- residual activity (CDK2 CCNA2 (human)): 95.1%
- residual activity (STK10 (human)): 68.7%
- residual activity (CAMK2D (human)): 113%
- residual activity (FER (human)): 95.6%

Compound: Nc1ccc2ncnc(NCCc3ccc(Oc4ccccc4)cc3)c2c1
- residual activity (PRKACG (human)): 110%
- residual activity (CAMK2A (human)): 71.3%
- residual activity (AXL (human)): 96.1%
- residual activity (AKT3 (human)): 104%
- residual activity (SLK (human)): 102%
- residual activity (RPS6KA3 KD1 KD2 (human)): 101%
- residual activity (MAP3K8 (human)): 97.2%
- residual activity (STK38 (human)): 97.9%
- residual activity (PTK2B (human)): 95%
- residual activity (PDGFRB (human)): 105%
- residual activity (AURKC (human)): 96%
- residual activity (EPHA4 (human)): 98.5%
- residual activity (PRKD3 (human)): 98.1%
- residual activity (CSK (human)): 96.7%
- residual activity (MAP3K3 (human)): 106%
- residual activity (MAP3K5 (human)): 105%
- residual activity (MAP3K14 (human)): 109%
- residual activity (MAPK8 (human)): 104%
- residual activity (NEK11 (human)): 105%
- residual activity (PRKD1 (human)): 99.3%
- residual activity (DYRK3 (human)): 89.6%
- residual activity (LCK (human)): 98.3%
- residual activity [1]: 99.9%
- residual activity (BTK (human)): 96.8%
- residual activity (ACVR1B (human)): 101%
- residual activity (SRPK2 (human)): 95.3%
- residual activity (CSNK2A1 (human)): 95.2%
- residual activity (ROCK1 (human)): 94.4%
- residual activity (TAOK3 (human)): 102%
- residual activity (PAK6 (human)): 105%
- residual activity (DAPK1 (human)): 110%
- residual activity (MAP4K2 (human)): 100%
- residual activity (INSR (human)): 103%
- residual activity (MAPK11 (human)): 98.1%
- residual activity (CAMK1D (human)): 102%
- residual activity (STK33 (human)): 101%
- residual activity (CDK6 CCND1 (human)): 101%
- residual activity (PBK (human)): 98.2%
- residual activity (CDK2 CCNA2 (human)): 95.8%
- residual activity (STK10 (human)): 90.8%
- residual activity (CAMK2D (human)): 98.9%
- residual activity (FER (human)): 99.5%

Compound: Nc1ncnc2[nH]nc(Nc3ccc(F)cc3)c12
- residual activity (PRKACG (human)): 96.2%
- residual activity (CAMK2A (human)): 105%
- residual activity (AXL (human)): 45.4%
- residual activity (AKT3 (human)): 104%
- residual activity (SLK (human)): 99.5%
- residual activity (RPS6KA3 KD1 KD2 (human)): 89.8%
- residual activity (MAP3K8 (human)): 99.7%
- residual activity (STK38 (human)): 101%
- residual activity (PTK2B (human)): 101%
- residual activity (PDGFRB (human)): 98%
- residual activity (AURKC (human)): 96%
- residual activity (EPHA4 (human)): 90.1%
- residual activity (PRKD3 (human)): 86.7%
- residual activity (CSK (human)): 80.2%
- residual activity (MAP3K3 (human)): 87.6%
- residual activity (MAP3K5 (human)): 111%
- residual activity (MAP3K14 (human)): 111%
- residual activity (MAPK8 (human)): 111%
- residual activity (NEK11 (human)): 102%
- residual activity (PRKD1 (human)): 98.9%
- residual activity (DYRK3 (human)): 89%
- residual activity (LCK (human)): 98.3%
- residual activity [1]: 92.3%
- residual activity (BTK (human)): 82.3%
- residual activity (ACVR1B (human)): 104%
- residual activity (SRPK2 (human)): 97.1%
- residual activity (CSNK2A1 (human)): 89.9%
- residual activity (ROCK1 (human)): 100%
- residual activity (TAOK3 (human)): 92.4%
- residual activity (PAK6 (human)): 109%
- residual activity (DAPK1 (human)): 116%
- residual activity (MAP4K2 (human)): 88.9%
- residual activity (INSR (human)): 98.5%
- residual activity (MAPK11 (human)): 108%
- residual activity (CAMK1D (human)): 130%
- residual activity (STK33 (human)): 94.3%
- residual activity (CDK6 CCND1 (human)): 96.6%
- residual activity (PBK (human)): 87.6%
- residual activity (CDK2 CCNA2 (human)): 88.7%
- residual activity (STK10 (human)): 70.5%
- residual activity (CAMK2D (human)): 92.5%
- residual activity (FER (human)): 100%
